From ChEMBL document CHEMBL1129990, “Effect of N9-methylation and bridge atom variation on the activity of 5-substituted 2,4-diaminopyrrolo[2,3-d]pyrimidines against dihydrofolate reductases from Pneumocystis carinii and Toxoplasma gondii” (J Med Chem, 1997) come the findings set out here.

For assay [1], the target named is T1, Bifunctional dihydrofolate reductase-thymidylate synthase (Toxoplasma gondii, UniProt Q07422).
T1 sequence (Q07422 whole entry): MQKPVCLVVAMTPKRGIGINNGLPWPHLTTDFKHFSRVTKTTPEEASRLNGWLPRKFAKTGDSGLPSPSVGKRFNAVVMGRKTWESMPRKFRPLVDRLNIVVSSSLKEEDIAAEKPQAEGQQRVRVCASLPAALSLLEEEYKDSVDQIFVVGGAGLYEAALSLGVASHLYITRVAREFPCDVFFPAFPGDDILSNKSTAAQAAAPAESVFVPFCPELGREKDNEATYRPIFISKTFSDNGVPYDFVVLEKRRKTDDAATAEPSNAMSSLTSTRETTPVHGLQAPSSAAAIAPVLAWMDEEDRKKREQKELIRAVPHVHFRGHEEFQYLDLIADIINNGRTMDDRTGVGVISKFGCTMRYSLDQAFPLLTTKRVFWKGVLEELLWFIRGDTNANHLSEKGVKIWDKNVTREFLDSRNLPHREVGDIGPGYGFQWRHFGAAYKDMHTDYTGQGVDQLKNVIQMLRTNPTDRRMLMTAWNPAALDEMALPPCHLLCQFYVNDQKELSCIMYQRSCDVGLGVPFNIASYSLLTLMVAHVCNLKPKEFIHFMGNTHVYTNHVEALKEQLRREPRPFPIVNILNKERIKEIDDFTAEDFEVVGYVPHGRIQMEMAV
Description: Inhibition against Dihydrofolate reductase in Toxoplasma gondii

In assay [2] the target is T2, Dihydrofolate reductase (Pneumocystis carinii, UniProt P16184).
T2 sequence (P16184 whole entry): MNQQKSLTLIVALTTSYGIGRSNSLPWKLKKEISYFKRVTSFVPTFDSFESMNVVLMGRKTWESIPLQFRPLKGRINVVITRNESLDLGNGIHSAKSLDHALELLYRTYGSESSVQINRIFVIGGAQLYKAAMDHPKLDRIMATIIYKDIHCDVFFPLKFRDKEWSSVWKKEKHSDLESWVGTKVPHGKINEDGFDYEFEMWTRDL
Description: Inhibition against Dihydrofolate reductase in Pneumocystis carinii

Assay [3] deals with T3, Dihydrofolate reductase (Rattus norvegicus, UniProt Q920D2).
T3 sequence (Q920D2 whole entry): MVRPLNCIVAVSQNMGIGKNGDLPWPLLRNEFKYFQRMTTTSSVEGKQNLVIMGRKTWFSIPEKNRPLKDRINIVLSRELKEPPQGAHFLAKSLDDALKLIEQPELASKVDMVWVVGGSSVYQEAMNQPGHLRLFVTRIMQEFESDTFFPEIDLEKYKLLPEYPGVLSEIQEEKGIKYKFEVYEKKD
Description: Inhibition against Dihydrofolate reductase in rat liver

As for `CN(Cc1c[nH]c2nc(N)nc(N)c12)c1ccc(C(=O)N(C)C(CCC(=O)O)C(=O)O)cc1` (centres undefined), the results for the IC50 in assay [1], in assay [2] and in assay [3] were 0.15 µM, 0.044 µM and 0.06 µM, respectively.

Regarding `CN(Cc1c[nH]c2nc(N)nc(N)c12)c1cccc2ccccc12`, the IC50 was 0.87 µM in assay [1], 209 µM in assay [2] and 8.2 µM in assay [3].

For `Nc1nc(N)c2c(CSc3ccc4ccccc4c3)c[nH]c2n1`, the values for the IC50 in assay [1], in assay [2] and in assay [3] were 9.2 µM, 929 µM and 82.9 µM, respectively.

As for `COc1ccc(OC)c(N(C)Cc2c[nH]c3nc(N)nc(N)c23)c1`, the IC50 was 3.4 µM in assay [1], more than 12 µM in assay [2] and more than 12 µM in assay [3].

`CN(Cc1c[nH]c2nc(N)nc(N)c12)c1ccc(Cl)c(Cl)c1`: the IC50 in assay [1] worked out at 1 µM; in assay [2], 28.3 µM; in assay [3] it was 3 µM.

Take `COc1ccc(SCc2c[nH]c3nc(N)nc(N)c23)cc1OC`: the concentration for half-maximal inhibition (IC50) in assay [1] was 2.6 µM; in assay [2], 11.1 µM; in assay [3], 16.7 µM.

With `Nc1nc(N)c2c(CSc3ccc(Cl)c(Cl)c3)c[nH]c2n1`, the IC50 in assay [1] is 11.6 µM; in assay [2], 58.5 µM; in assay [3], 5.3 µM.

With `Nc1nc(N)c2c(CSc3cccc4ccccc34)c[nH]c2n1`, the IC50 was determined as 0.81 µM in assay [1], 10.6 µM in assay [2] and 3 µM in assay [3].
